{
  "source": "paper PMC3912015",
  "about": "“Synthetic Multivalent Antifungal Peptides Effective against Fungi” (PLoS ONE, 2014)",
  "key": {"[1]": {"tested_on": "C. albicans DF2672R", "test": "microbe, parasite or virus in culture", "assay_type": "cell-based", "settings": "DF2672R, 48 h; read-out: MIC in µM against Ca 2672R", "summary_of_the_method": "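Growth inhibition is followed as OD600 over 24/48 h at 37°C in one-sixth SD broth, with 0.4–22 µM peptide. The MIC is the minimum concentration with no visible or measurable growth. Salt-effect runs add NaCl or KCl at 100 and 135 mM, or CaCl2/MgCl2 at 0.5–2 mM.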"}, "[2]": {"tested_on": "F. solani DM3782", "test": "microbe, parasite or virus in culture", "assay_type": "cell-based", "settings": "48 h"}, "[3]": {"tested_on": "C. albicans ATCC 10231", "assay_type": "cell-based", "settings": "Candida albicans, 6 h, 5.5 µM", "protocol": "For all the experiments, unless otherwise stated, C. albicans ATCC 10231 strain was used. B4010 (1 mg/mL) was incubated with trypsin (enzyme:peptide ratio 1∶100) at 37°C. 20 µL aliquot of this mixture was withdrawn at various time intervals (0.5, 1, 2, 4 and 6 h) and mixed with 1 µL of trypsin inhibitor. The antifungal activity of the peptide was determined by adding this mixture to 180 µL of inoculum and monitoring the growth at OD600 for 24 h. Similar experiments performed in the presence of trypsin/trypsin inhibitor (without B4010) were used as a positive control. For assessing the antifungal activity in TF, the peptide was dissolved in freshly collected rabbit TF and incubated at 37°C for 6 h. After incubation, an equal volume of an overnight culture of C. albicans (∼10^6 CFU/mL) was mixed with peptides in tear fluid and incubated at 37°C for 24 h. The final concentrations of the peptide were at 4.4, 8.8 and 22 µM. A 100 µL aliquot of serial dilutions (10^2 or 10^3 times) of this mixture were inoculated on a SD agar plate and then incubated for 48 h at 37°C. […]\nTo study the effects of metal ions, the broth solution containing C. albicans (OD600 = 0.4–0.6) was adjusted to appropriate final concentrations of metal ions, incubated with 5.5 µM of B4010 for 6 h and the cell viability was determined as before after 48 h. […]"}, "[4]": {"tested_on": "C57BL6 wild type mice", "test": "In vivo acute toxicity", "protocol": "Acute toxicity of B4010 was assessed with C57BL6 (6–8 weeks old) wild type mice. Two healthy wild type mice were chosen for each routes of administration. B4010 was delivered through intra-peritoneal (200 mg/kg) or (100 mg/kg) intra-venous routes. Two animals were used for each administration and monitored through 24/48 h to determine mortality, or signs of toxicity."}},
  "note": "Bridge positions count the residues as written; N and C are the ends. Peptide text beside a SMILES is read from it. I, II: the chains in the order shown.",
  "data": [
    {"smiles": "CC(C)[C@H](NC(=O)[C@H](CCCCN)NC(=O)[C@H](CCCNC(=N)N)NC(=O)CNC(=O)[C@@H](N)CCCNC(=N)N)C(=O)N[C@H](C(=O)N[C@@H](CCCNC(=N)N)C(=O)N[C@@H](CCCNC(=N)N)C(=O)NCCCC[C@H](NC(=O)[C@H](CCCNC(=N)N)NC(=O)[C@H](CCCNC(=N)N)NC(=O)[C@@H](NC(=O)[C@@H](NC(=O)[C@H](CCCCN)NC(=O)[C@H](CCCNC(=N)N)NC(=O)CNC(=O)[C@@H](N)CCCNC(=N)N)C(C)C)C(C)C)C(=O)NCCCC[C@H](NC(=O)[C@H](CCCCNC(=O)[C@H](CCCNC(=N)N)NC(=O)[C@H](CCCNC(=N)N)NC(=O)[C@@H](NC(=O)[C@@H](NC(=O)[C@H](CCCCN)NC(=O)[C@H](CCCNC(=N)N)NC(=O)CNC(=O)[C@@H](N)CCCNC(=N)N)C(C)C)C(C)C)NC(=O)[C@H](CCCNC(=N)N)NC(=O)[C@H](CCCNC(=N)N)NC(=O)[C@@H](NC(=O)[C@@H](NC(=O)[C@H](CCCCN)NC(=O)[C@H](CCCNC(=N)N)NC(=O)CNC(=O)[C@@H](N)CCCNC(=N)N)C(C)C)C(C)C)C(=O)N[C@@H](CCCCN)C(=O)O)C(C)C", "note": "[B4010] (I: H-RGRKVVRRKKK-OH / II: H-RGRKVVRRK / III: H-RGRKVVRR / IV: H-RGRKVVRR; amide I:9-IV:C, I:10-II:C, II:9-III:C; N-terminus and C-terminus assumed)", "values": [
      {"measurement": "MIC", "setting": "[1]", "result": 0.37, "unit": "µM"},
      {"measurement": "MIC", "setting": "[2]", "result": 1.4, "unit": "µM"},
      {"measurement": "viable cells", "setting": "[3]", "result": 40, "unit": "%"},
      {"measurement": "acute toxicity", "setting": "[4]; IP 200 mg/kg", "result": "no sign of mortality, morbidity or toxicity"},
      {"measurement": "acute toxicity", "setting": "[4]; IV 100 mg/kg", "result": "no sign of mortality, morbidity or toxicity"}
    ]}
  ]
}
